Reference: BindingDB's records for patent US20250304563 (Orum Therapeutics, 2025)

Biological target: T1, Isoform Truncated 1 of E3 ubiquitin-protein ligase CBL-B [36-427] (Homo sapiens, UniProt Q13191)
T1 construct: 36-427
Experiment: Binding Affinity of Example 1 Compounds to Cbl-b Protein
Experimental: Compounds were assessed for binding activity to Cbl-b by their ability to compete with and displace a probe comprised of BODIPY-FL fluorophore conjugated to a Cbl-b inhibitor (see Example 54 in WO2020264398). In the assay, a 36-427 aa truncated form of Cbl-b with an N-terminus Avi-tag was incubated 20 mM HEPES pH 7.5, 150 mM NaCl, 0.01% Triton X-100, 0.1% BSA, 0.5 mM TCEP buffer with streptavidin-terbium (Cisbio). After one hour of incubation at room temperature, 1 uM each of fluorescent probe and compound were combined with the reaction mixture. Compounds with Cbl-b binding activity competitively displace the fluorophore tagged inhibitor thereby disrupting the FRET signal from the terbium-BODIPY-FL complex. The reaction mixtures were incubated for one additional hour at room temperature to allow for competition between inhibitor and candidate compounds to occur. The time resolved FRET (TR-FRET) signal was then read at 520/620 […] ([…]) using a Spectramax M5e plate reader (Molecular Devices) to measure probe displacement. Compounds with Cbl-b binding activity had decreased FRET signal owing to disruption of the terbium-BODIPY-FL FRET complex. Standard methods in PRISM were used to calculate the compound IC50 values from the experimental data.

In the case of `CCSc1cc(C2(Cc3nncn3C)COC2)cc(N2CC3C(C(N)=O)=CC(CN4CCC[C@H](C)C4)=CC3C2=O)n1` (stereo partly specified) [US20250304563, Compound 145], the IC50 was “in the range around 12.5 nM”.
